{"source": "patent US20250066409A1", "about": "“DERIVATIVE OF PENTACYCLIC TRITERPENOIDAL SAPONIN AND ITS PREPARATION METHOD AND APPLICATION” (SOOCHOW UNIVERSITY, priority 2022, published 2025)", "key": {"[1]": {"test_system": "IL-6", "assay": "IL-6 release from LPS-stimulated THP-1 cells, ELISA", "type": "cell-based", "settings": "pretreatment 1 h, LPS 1 μg/mL 24 h, P<0.05", "protocol": "(§1) THP-1 cells were seeded in a 6-well plate at 2×10^5 cells/well and cultured conventionally. After the cells reached 80%, they were induced with 100 ng/ml of PMA for 12 h, and then the original medium was discarded, and new complete medium was added. The control group was pretreated with B4 (0.1, 1, 10 μM) for 1 h, and the experimental group was pretreated with A3-6 (0.1, 1, 10 μM) for 1 h. After 1 h, the other groups were removed from the blank group and incubated with 1 μg/mL LPS for 24 h. The culture supernatant was collected, and the IL-6 and TNF-α contents were finally determined and calculated using ELISA kits step by step according to their instructions. The effect of A3-6 on the release of inflammatory factors was tested by ELISA kits."}, "[2]": {"test_system": "TNF-α", "assay": "TNF-α release from LPS-stimulated THP-1 cells, ELISA", "type": "cell-based", "settings": "pretreatment 1 h, LPS 1 μg/mL 24 h, P<0.05", "protocol": "as §1"}, "[3]": {"test_system": "DSS-induced colitis mice", "assay": "DSS-induced colitis in mice (DAI score, colon length)", "type": "in vivo, ICR mice", "settings": "B4 group (100 mg/kg by gavage), 5% DSS mice", "protocol": "ICR mice were fed normally for 3 days, with free access to water and food during the feeding period. After weighing, the mice were randomly divided into groups, including normal group, model group (DSS group), A3-6 (15, 30, 60 mg/kg) group, A3-6 (60 mg/kg)+DADA (50 mg/kg) group, and positive drug B4 (100 mg/kg) group. A3-6 was administered by gavage with hydroxypropyl β-cyclodextrin (1:3), B4 was dissolved in water and administered by gavage, and DADA (50 mg/kg) was injected intraperitoneally, once a day. The day before modeling, the weight was weighed and A3-6, DADA and B4 were pre-administered according to body weight. After 24 hours of administration, DSS was dissolved in the drinking water for mice. The mice in the model group and the administration group were continuously given 5% DSS for 8 days and weighed every day. […] After the 9th day of administration, the mice were sacrificed, blood and colon were collected, and the length of the colon was measured.\nA3-6 (15 mg/kg, 30 mg/kg and 60 mg/kg) or B4 (100 mg/kg) were administered by gavage once daily for 9 days. […] The DAI scores of each group of mice were calculated daily according to the scoring requirements.\nThe mice colitis model was constructed using 5% DSS to evaluate the therapeutic effect of A3-6 on inflammatory bowel disease (IBD)-. […] The DAI score of the mice was comprehensively evaluated."}}}
{"molecule": "C=C(C)[C@@H]1CC[C@]2(C(=O)O[C@@H]3O[C@H](CO[C@@H]4O[C@H](CO)[C@@H](O[C@@H]5O[C@@H](C)[C@H](O)[C@@H](O)[C@H]5O)[C@H](O)[C@H]4O)[C@@H](O)[C@H](O)[C@H]3O)CC[C@]3(C)[C@H](CC[C@@H]4[C@@]5(C)CC[C@H](O[C@@H]6OC[C@H](O)[C@H](O)[C@H]6O[C@@H]6O[C@@H](C)[C@H](O)[C@@H](O)[C@H]6O)[C@@](C)(CO)[C@@H]5CC[C@]43C)[C@@H]12", "note": "[B4, anemoside B4]", "values": [{"measurement": "release of IL-6 compared with the model group", "setting": "[1]; 1 μM", "result": "significantly reduced"}, {"measurement": "release of IL-6 compared with the model group", "setting": "[1]; 10 μM", "result": "significantly reduced"}, {"measurement": "release of TNF-α compared with the model group", "setting": "[2]; 1 μM", "result": "significantly reduced"}, {"measurement": "release of TNF-α compared with the model group", "setting": "[2]; 10 μM", "result": "significantly reduced"}, {"measurement": "colon length", "setting": "[3]", "result": "could restore the colon length"}]}
